# Laboratory results reported in article PMC12661054, “The CIP2A-TOPBP1 axis facilitates mitotic DNA repair via MiDAS and MMEJ” (Nature Communications, 2025).
# How the values were obtained:
# [1] = test system: HCT116-TOPBP1-mAID-Clover cells; experiment: TOPBP1 degron assay, HCT116-TOPBP1-mAID-Clover cells; format: cell-based, human
# Experimental: Immunofluorescence microscopy
# (§1) For detection of EdU incorporation in mitosis and the analysis of recruitment of TOPBP1, CIP2A, MUS81, ERCC1, TOPBP1-mAID-Clover, eGFP tagged SLX4 and eGFP tagged Polθ in RPE1 p53^-/- FRT/TR and DLD1 BRCA2^-/-cells, respectively, cells were grown on 13 mm 1.5 thickness coverslips and treated as described. Subsequently cells were simultaneously fixed and permeabilised in PTEMF buffer (20 mM PIPES pH 6.8, 10 mM EGTA, 0.2% Triton X-100, 1 mM MgCl2 and 4% formaldehyde) for 10 minutes at room temperature. For detection of micronuclei, cells were fixed in 250 mM HEPES pH 7.5, 0.1% Triton X-100, 4% PFA in PBS for 20 minutes at 4 °C.
# (§2) Quantification was carried out using FIJI (ImageJ, RRID:SCR_003070) software, CellProfiler (Broad Institute), Harmony (Revvity) or using Aivia (Leica Microsystems). Images of mitotic cells were analysed in 3D with maximum Z projections used for representative images in the manuscript to assist with visualisation.For interphase cells 2D images were analysed.
# DLD1 BRCA2-/- cells = experiment: Proliferation (Incucyte), DLD1 BRCA2-/- cells; format: cell-based, human; settings: 5 µM ART558 + siSLX4, compared to siCIP2A; three independent experiments
# Experimental: For proliferation analysis of DLD1 BRCA2^-/- cells after treatment with siRNA as indicated, 72 h post-transfection of the first pulse of siRNA, 1500 cells were seeded per well in a PhenoPlate 96-well optically clear tissue culture plate (Revvity, 6055302). […] The following day the media was aspirated and replaced with 200 µl of RPMI 1640 medium containing standard antibiotics, 10% FBS and 2 mM L-glutatmine.
# To analyse cellular proliferation of DLD1 BRCA2^-/- or SUM149PT BRCA1^-/-cells expressing a minimal SLX4 T1260 containing fragment, 1500 cells were seeded per well in a PhenoPlate 96-well optically clear tissue culture plate (Revvity, 6055302). […] The following day the medium was aspirated and replaced with 200 µl of RPMI 1640 medium containing standard antibiotics, 10% FBS and 2 mM L-glutatmine (DLD1 BRCA2^-/- SLX4 T1260 fragment cells or empty vector control expressing) or S Ham’s F-12 medium supplemented with 5% FBS, 10 μg/mL insulin, 0.5 μg/mL hydrocortisone and penicillin/streptomycin antibiotics for SUM149PT BRCA1^-/- (SLX4 T1260 fragment or empty vector control expressing) containing 1 µg/ml doxycycline.
# RPE1 p53-/- FRT/TR cells = experiment: Micronuclei formation, RPE1 p53-/- FRT/TR cells; format: cell-based, human; settings: 5 µM ART558, 18 h, with 400 nM aphidicolin, three independent experiments
# Experimental: as §1
# Coverslips were then incubated for 5 min in 1x PBS with three buffer changes followed by incubation with 0.5% Triton X-100/ PBS for 10 min at room temperature. Coverslips were then incubated for 5 minutes in 1x PBS with three buffer changes. […]
# as §2
# RPE1 p53-/- cells = experiment: Immunofluorescence foci, RPE1 p53-/- cells; format: cell-based, human
# Experimental: Immunofluorescence microscopy […] For detection of micronuclei, cells were fixed in 250 mM HEPES pH 7.5, 0.1% Triton X-100, 4% PFA in PBS for 20 minutes at 4 °C. Coverslips were then incubated for 5 min in 1x PBS with three buffer changes followed by incubation with 0.5% Triton X-100/ PBS for 10 min at room temperature. Coverslips were then incubated for 5 minutes in 1x PBS with three buffer changes. For EdU detection coverslips were transferred to a humidified chamber and incubated in EdU click it reaction buffer containing Alexafluor 488 azide for 1 h at room temperature followed by three 5 min washes in 1x PBS. Coverslips were then incubated in 5% FBS/PBS for 1 h followed by overnight incubation at 4 °C with primary antibody diluted in 5% FBS/PBS. Coverslips were then washed 3 × 5 min in 1x PBS followed by 1 h incubation at room temperature in 5% FBS/PBS containing secondary antibodies. Coverslips were incubated a further three times for 5 min in 1x PBS. Coverslips were then mounted on superfrost microscopy slides using Vectashield mounting medium with DAPI (Vector laboratories, […]). […] Cells were fixed in […] for 15 min at room temperature, followed by 3 × 5 min washes in 1xPBS. Coverslips were then incubated in 0.5% Triton-X/PBS for 10 min at room temperature, followed by a further 3 × 5 min 1xPBS washes. Coverslips were then incubated in blocking buffer (2% BSA, 0.05% Tween-20) for 1 h at room temperature, followed by incubation in respective primary antibodies overnight at 4 °C. Coverslips were then washed 3x for 5 min in 1x PBS followed by incubation for 1 h at room temperature in blocking buffer containing secondary antibodies. Coverslips were then washed 3x for 5 min in 1x PBS and mounted with Vectashield PLUS antifade mounting medium with DAPI (Vector laboratories, […]). Images were acquired using a Zeiss Axio Observer Z1 MarianasTM Microscope attached with a CSU-SoRa spinning disk unit using either a Photometrics Kinetix sCMOS camera built by Intelligent Imaging Innovations (3i) or a Zeiss Axio Observer Z1 MarianasTM Microscope attached with a CSUX1 spinning disk unit and Hamamatsu Flash 4 CMOS camera built by Intelligent Imaging Innovations (3i) or using an Opera Phenix Plus high content imaging system (Revvity). In each case 405, 488 and 640 laser lines were used in addition to DAPI, GFP/FITC, iRFP/CY5 emission filters. Quantification was carried out using FIJI (ImageJ, RRID:SCR_003070) software, CellProfiler (Broad Institute), Harmony (Revvity) or using […] Microsystems). Images of mitotic cells were analysed in 3D with maximum Z projections used for representative images in the manuscript to assist with visualisation.For interphase cells 2D images were analysed.
# TOPBP1 BRCT 0-1-2 WT = target: T1, TOPBP1 BRCT 0-1-2 WT (Homo sapiens, UniProt Q92547); experiment: Fluorescence polarisation, TOPBP1 BRCT0-1-2 WT; format: binding; settings: GST-tagged TOPBP1 fragment, peptide 100 nM, pH 7.5
# T1 construct: transformed with pGEX-6P-1 TOPBP1(BRCT0-2 1-290) WT and K155E, K250E and K155E/K250E mutant variants; GST (N); made in house; host or cells: E. coli BL21(DE3)
# Experimental: E.coli BL21(DE3) cells were transformed with pGEX-6P-1 TOPBP1(BRCT0-2 1-290) WT and K155E, K250E and K155E/K250E mutant variants for protein expression. Cell pellets were resuspended in lysis buffer containing 25 mM HEPES pH 7.5, 200 mM NaCl and 0.5 mM TCEP supplemented with 50U Turbo DNase, disrupted by sonication, and the resulting lysate clarified by centrifugation at 36,000 x g for 60 min at 4 °C. The supernatant was applied to a 5 ml HiTrap GST column, then washed with buffer containing 50 mM HEPES pH 7.5, 1000 mM NaCl, 0.25 mM TCEP, before the retained protein was eluted by application of the lysis buffer supplemented with 20 mM glutathione. […]
# (§3) In vitro fluorescence polarisation
# Fluorescein-labelled peptides corresponding to amino acids 1253-1267 or 1470-1483 of SLX4 incorporating pT1260 or pT1476 respectively, were incubated at a concentration of 100 nM at room temperature with increasing concentrations of TOPBP1 WT or mutant BRCT module variants[26] in 25 mM HEPES pH 7.5, 150 mM NaCl, 1 mM EDTA, 0.25 mM TCEP, 0.002% (v/v) Tween 20 in a black 96-well polypropylene plate. […] Fluorescence polarisation was measured in a CLARIOstar multimode microplate reader. Binding curves were calculated assuming a single binding site with non-specific binding component, using Graphpad Prism10.2.3 (GraphPad Prism, RRID: SCR_002798). […]
# TOPBP1 BRCT 7-8 = experiment: Fluorescence polarisation, TOPBP1 BRCT 7-8; format: binding, human; settings: peptide 100 nM, pH 7.5
# Experimental: as §3
# (§4) Fluorescein-labelled peptides corresponding to amino acids 1253-1267 or 1470-1483 of SLX4 incorporating pT1260 or pT1476 respectively, were incubated at a concentration of 100 nM at room temperature with increasing concentrations of TOPBP1 WT or mutant BRCT module variants[26] in 25 mM HEPES pH 7.5, 150 mM NaCl, 1 mM EDTA, 0.25 mM TCEP, 0.002% (v/v) Tween 20 in a black 96-well polypropylene plate. Additional experiments performed with dephosphorylated peptide were achieved though incubation with Lambda phosphatase supplemented with 1 mM MnCl2 to remove the phosphorylation on the peptide. Fluorescence polarisation was measured in a CLARIOstar multimode microplate reader. Binding curves were calculated assuming a single binding site with non-specific binding component, using Graphpad Prism10.2.3 (GraphPad Prism, RRID: SCR_002798). Binding affinities are presented as calculated values alongside the 95% CI values. The presented graphs represent data plotted with the non-specific binding component subtracted.
# TOPBP1 BRCT 4-5 = experiment: Fluorescence polarisation, TOPBP1 BRCT 4-5; format: binding, human; settings: peptide 100 nM, pH 7.5
# Experimental: as §3, §4
# T1 sequence (Q92547 1-290): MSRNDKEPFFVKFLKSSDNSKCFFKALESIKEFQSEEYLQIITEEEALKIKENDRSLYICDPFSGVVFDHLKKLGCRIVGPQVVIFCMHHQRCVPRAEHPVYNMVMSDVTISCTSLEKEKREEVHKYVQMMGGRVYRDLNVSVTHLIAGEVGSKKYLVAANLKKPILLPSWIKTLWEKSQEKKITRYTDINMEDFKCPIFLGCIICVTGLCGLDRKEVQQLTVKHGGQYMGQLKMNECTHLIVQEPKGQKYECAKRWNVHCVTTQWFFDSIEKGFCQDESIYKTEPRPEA
compound,measurement,setting,value
"O=C(O)Cc1c[nH]c2ccccc12 [IAA, Indole-3-acetic acid]",MUS81 foci formation in prometaphase after acute TOPBP1 degradation,"[1]; 500 µM IAA, 2 h, 40 ng/ml nocodazole, three independent experiments",near total abolishment of MUS81 foci formation in prometaphase
same,anaphase abnormalities after acute TOPBP1 degradation,"[1]; IAA-induced degradation of TOPBP1 in G2/M, release into mitosis",marked increase in anaphase abnormalities
Cc1cccc(N(C)C(=O)[C@@H]2[C@H](O)CCN2c2nc(C)cc(C(F)(F)F)c2C#N)c1 [Polθi],"proliferation, DLD1 BRCA2-/- cells depleted of SLX4",DLD1 BRCA2-/- cells,broadly similar loss of proliferative capacity compared to the single depletion of CIP2A alone
same,"micronuclei formation, WT cells",RPE1 p53-/- FRT/TR cells,increase in micronuclei formation
C[C@@]1(CO)[C@H](O)CC[C@@]2(C)[C@H]1CC[C@H]1C[C@@H]3C[C@@]12CC[C@]3(O)CO [aphidicolin],CIP2A–γH2AX colocalising foci in mitosis,"RPE1 p53-/- cells; 400 nM aphidicolin 18 h, nocodazole 60 ng/ml 2 h, RPE1 p53-/- FRT/TR WT, three experiments",striking increase in CIP2A–γH2AX colocalising foci in mitosis
same,RAD9 TOPBP1 colocalising foci,"RPE1 p53-/- cells; 400 nM aphidicolin 18 h, nocodazole 60 ng/ml 2 h, RPE1 p53-/- FRT/TR, two experiments (peer review file Fig. R1B)",increase in response to aphidicolin treatment
same,"WT SLX4 recruitment to prometaphase chromatin, colocalised with CIP2A","RPE1 p53-/- cells; 400 nM aphidicolin 18 h, nocodazole 60 ng/ml 2 h, RPE1 p53-/- SLX4-/- + eGFP-SLX4 WT, three independent experiments",recruited to prometaphase chromatin in response to replicative stress induced by aphidicolin and colocalised with CIP2A
same,colocalisation between CIP2A and FANCD2 foci on mitotic chromatin,"RPE1 p53-/- cells; 400 nM aphidicolin 18 h, nocodazole 60 ng/ml 2 h, RPE1 p53-/- WT, three experiments",detected colocalisation between CIP2A and FANCD2 foci on mitotic chromatin
same,"TOPBP1, SLX4, and MUS81 foci during interphase",RPE1 p53-/- cells; RPE1 cells treated with aphidicolin,"elevated formation of TOPBP1, SLX4, and MUS81 foci during interphase"
same,"mitotic colocalisation of SLX4, MUS81 or ERCC1 with TOPBP1 in prometaphase","RPE1 p53-/- cells; RPE1 cells, aphidicolin","elevated mitotic colocalisation of SLX4, MUS81 or ERCC1 with TOPBP1 in prometaphase"
same,colocalisation between γH2AX and MUS81,RPE1 p53-/- cells; RPE1 p53-/- cells treated with aphidicolin,The same observation was made for colocalisation between γH2AX and MUS81
same,colocalising γH2AX and SLX4 foci,RPE1 p53-/- cells; aphidicolin treated RPE1 p53-/- cells,significant increase in colocalising γH2AX and SLX4 foci
same,MDC1 foci formation in mitosis,RPE1 p53-/- cells; aphidicolin-treated RPE1 cells compared to control,elevated MDC1 foci formation in mitosis
"‘Flu’-GYGSPGLLDT(pT)PIRGSCT [SLX4 pT1476, Fluorescein-labelled peptide corresponding to amino acids 1470-1483 of SLX4 incorporating pT1476]",interaction with TOPBP1 BRCTs 0-1-2,TOPBP1 BRCT 0-1-2 WT,did not bind
same,interaction with TOPBP1 BRCTs 7-8,TOPBP1 BRCT 7-8,no interaction was detected
same,interaction with TOPBP1 BRCTs 4-5,TOPBP1 BRCT 4-5,no interaction was detected
